Paper PMC5854577, “A common mechanism of proteasome impairment by neurodegenerative disease-associated oligomers” (Nature Communications, 2018)
Starred links: 1 amine or outer side, 2 acyl side, 3 side chain; linkers in the order of their positions; H or OH if unused. Residues, ends and D or L forms follow the SMILES beside them. *: point of attachment. AMC = Cc1cc(=O)oc2cc(N*)ccc12; Suc = O=C(CCC(=O)[*:2])[*:1]

Molecular target: T1, Mammalian 20S proteasome (bovine 20S) (Bos taurus, UniProt Q32KL2+Q3MHN0+Q3T0X5+Q5E987)
T1 construct: gene PSMB5; with Proteasome subunit beta type-1; Proteasome subunit beta type-2; Proteasome subunit beta type-3; Proteasome subunit beta type-4
Test: fluorogenic peptide hydrolysis
Assay type: biochemical
Conditions: chymotrypsin-like activity; 100 uM substrate, pH 7.4

Cc1cc(=O)oc2cc(NC(=O)[C@H](Cc3ccc(O)cc3)NC(=O)[C@@H](NC(=O)[C@H](CC(C)C)NC(=O)[C@H](CC(C)C)NC(=O)CCC(=O)O)C(C)C)ccc12 [suc-LLVY-amc] (Suc-LLVY-{AMC})
fluorogenic peptide hydrolysis: Proteasome activity (linear rate of LLVY-amc hydrolysis)
